# Results as given in article PMC4604765, “Eye drop delivery of pigment epithelium-derived factor-34 promotes retinal ganglion cell neuroprotection and axon regeneration” (Molecular and Cellular Neurosciences, 2015).
# No end group written: not given here.
# How the values were obtained:
# [1] = Stability in culture media and on long-term storage; settings: no data shown
# [2] = system: βIII-tubulin+ retinal neurons; experiment: Neurite outgrowth in mixed adult rat retinal cultures (βIII-tubulin immunocytochemistry); format: cell-based
# Excerpt: For all in vitro experiments, adult 6–8-week-old female Sprague–Dawley rats weighing 170–220 g were used. Culture experiments included retinal cells treated with: (1), Neurobasal-A (NBA) alone (Control); and equimolar concentrations of (2), 2.16; (3) 5.4; (4), 10.8 and (5), 21.6 pM PEDF-34/-44; and (6), ciliary neurotrophic factor (CNTF: Peprotech, London, UK), as a positive control at an optimal neuroprotective/axogenic concentration of 440.5 pM, established by us previously ([Ahmed et al., 2009; Douglas et al., 2009]). […] All experiments were performed in triplicate and repeated on three independent occasions.
# Mixed adult rat retinal cultures containing enriched populations of retinal neurons, including RGCs, were prepared from 6–8-week-old adult female Sprague–Dawley rats, as described previously ([Ahmed et al., 2006b, 2009, 2010; Douglas et al., 2009; Vigneswara et al., 2013]). Briefly, retinal cells were dissociated using a Papain dissociation kit according to the manufacturer's instructions (Worthington Biochemicals, Lakewood, NJ, USA). Retinal cells were plated at a density of 125 × 10^3/well in poly-D-lysine and laminin pre-coated 8-well chamber slides and cultured in NBA supplemented with B27 supplement (all from Invitrogen, Paisley, UK), with appropriate treatments for 4 days at 37 °C and 5% CO2 before fixation in 4% paraformaldehyde diluted in PBS for immunocytochemistry, as described previously ([Vigneswara et al., 2013, 2014]).
# Fixed cells were washed in several changes of PBS before permeabilisation and blocking of non-specific antibody sites with PBS containing 3% bovine serum albumin (BSA) and 0.1% Triton X-100 (both from Sigma, Poole, UK). Cells were then incubated with monoclonal anti-βIII-tubulin antibody (1:200 dilution; Sigma) for 1 h at room temperature (RT) to detect retinal neurons and their neurites. Cells were then washed in several changes of PBS and incubated with Alexa 488 anti-mouse IgG (1:400 dilution; Invitrogen) for 1 h at RT. After washing in several changes of PBS and mounting in Vectamount containing DAPI (Vector Laboratories, Peterborough, UK), cells were then viewed using a Zeiss epi-fluorescent microscope equipped with an AxioCam HRc and Axiovision Image capture software (all from Zeiss, Hertfordshire, UK). Immunocytochemistry included controls with primary antibody omitted, to set background levels of nonspecific staining (not shown) before image capture.
# The mean number of βIII-tubulin^+ neurons surviving, with neurites and the mean neurite length were quantified as described by us previously ([Vigneswara et al., 2013, 2014]). Briefly, chamber slides were anonymised by a second investigator and βIII-tubulin^+ neuronal soma and neurites quantified in 9 quadrants/well using Axiovision software (Version 4.8; Zeiss) and ImagePro (Version 6.3; Media Cybernetics, Bethesda, MD, USA). Of the 125,000 cells/well plated, the total numbers of neurons in each experiment were determined by βIII-tubulin^+ immunocytochemistry after allowing 30 min for cells to adhere to glass culture slides. This determines the number of neurons plated/well and is used in each experiment to work out the proportion of surviving βIII-tubulin^+ neurons. Neurite outgrowth from at least 180 neurons/condition from the 9 wells was measured, except in control (NBA) cultures, in which a total of 108 neurons were measured.
# [3] = 5.4 pM (peak), 4 days in culture
sequence,measurement,setting,value
DPFFKVPVNKLAAAVSNFGYDLYRVRSSTSPTTN [PEDF-34],stability in culture media,[1]; PEDF-34 compared with PEDF-44,equally stable
same,neurotrophic properties after long-term storage,[1],retained their neurotrophic properties
same,mean neurite length,[2]; [3],211 ± 23 μm
same,mean proportion of βIII-tubulin+ neurons with neurites,[2]; [3],21 ± 2%
same,fold longer neurites than in CNTF cultures,[2]; PEDF-34 versus CNTF (440.5 pM),2.2 fold
same,fold more βIII-tubulin+ neurons with neurites than in CNTF cultures,[2]; PEDF-34 versus CNTF (440.5 pM),10.5 fold
same,fold longer neurites than in PEDF-44 cultures,[2]; PEDF-34 versus PEDF-44,1.7 fold
same,fold more βIII-tubulin+ neurons with neurites than in PEDF-44 cultures,[2]; PEDF-34 versus PEDF-44,2.3 fold
same,more neuritogenic than PEDF-44 in vitro,"[2]; PEDF-34 versus equimolar PEDF-44, retinal cultures",52%
same,fold longer neurites than in untreated cultures,[2]; PEDF-34 versus untreated,6.3 fold
same,fold more βIII-tubulin+ neurons with neurites than in untreated cultures,[2]; PEDF-34 versus untreated,21 fold
same,retinal neuron/RGC neuritogenesis/axogenesis compared to untreated controls,[2]; statement in discussion,Five-fold more
